In ChEMBL document CHEMBL5291721, “A preclinical secondary pharmacology resource illuminates target-adverse drug reaction associations of marketed drugs” (Nat Commun, 2023) one finds AC50 data, which are given here for twelve molecules.

In general, AC50 refers to the midpoint of the concentration-response curve, whichever way the signal moves. A higher AC50 goes with weaker potency.

Assay [1] concerns the target T1, Alpha-2A adrenergic receptor (Homo sapiens, UniProt P08913).
T1 sequence (P08913 whole entry): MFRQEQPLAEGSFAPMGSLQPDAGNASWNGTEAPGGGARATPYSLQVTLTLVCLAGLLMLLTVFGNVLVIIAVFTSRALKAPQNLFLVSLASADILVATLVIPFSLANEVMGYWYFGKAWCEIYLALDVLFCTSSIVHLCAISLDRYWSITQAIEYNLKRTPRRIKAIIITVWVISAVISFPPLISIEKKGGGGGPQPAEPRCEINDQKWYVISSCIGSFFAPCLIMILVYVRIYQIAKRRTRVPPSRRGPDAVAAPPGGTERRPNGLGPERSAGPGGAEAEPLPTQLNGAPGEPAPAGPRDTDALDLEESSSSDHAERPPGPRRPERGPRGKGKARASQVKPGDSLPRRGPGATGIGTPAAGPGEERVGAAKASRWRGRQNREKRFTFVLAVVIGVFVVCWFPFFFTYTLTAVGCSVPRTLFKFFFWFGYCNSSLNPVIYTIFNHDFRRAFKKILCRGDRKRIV
Format: functional, cell-based.

For assay [2], the target named is T2, Alpha-2C adrenergic receptor (Homo sapiens, UniProt P18825).
T2 sequence (P18825 whole entry): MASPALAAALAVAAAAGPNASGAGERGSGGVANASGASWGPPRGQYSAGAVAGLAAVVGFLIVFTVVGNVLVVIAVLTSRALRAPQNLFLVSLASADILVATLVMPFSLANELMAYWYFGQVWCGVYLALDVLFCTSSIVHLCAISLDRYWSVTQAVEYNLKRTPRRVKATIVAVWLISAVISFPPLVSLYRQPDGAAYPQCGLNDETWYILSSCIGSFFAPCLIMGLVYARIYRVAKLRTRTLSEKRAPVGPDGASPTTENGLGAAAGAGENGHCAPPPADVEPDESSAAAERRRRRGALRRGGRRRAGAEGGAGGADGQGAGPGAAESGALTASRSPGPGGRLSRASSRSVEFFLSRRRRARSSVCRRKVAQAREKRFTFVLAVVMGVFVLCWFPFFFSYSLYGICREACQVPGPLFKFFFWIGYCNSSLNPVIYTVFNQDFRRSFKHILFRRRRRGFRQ
It is filed as functional.

The target of assay [3] is Beta-1 adrenergic receptor (Homo sapiens, UniProt P08588). Format: functional.
Beta-1 adrenergic receptor, sequence (P08588 whole entry): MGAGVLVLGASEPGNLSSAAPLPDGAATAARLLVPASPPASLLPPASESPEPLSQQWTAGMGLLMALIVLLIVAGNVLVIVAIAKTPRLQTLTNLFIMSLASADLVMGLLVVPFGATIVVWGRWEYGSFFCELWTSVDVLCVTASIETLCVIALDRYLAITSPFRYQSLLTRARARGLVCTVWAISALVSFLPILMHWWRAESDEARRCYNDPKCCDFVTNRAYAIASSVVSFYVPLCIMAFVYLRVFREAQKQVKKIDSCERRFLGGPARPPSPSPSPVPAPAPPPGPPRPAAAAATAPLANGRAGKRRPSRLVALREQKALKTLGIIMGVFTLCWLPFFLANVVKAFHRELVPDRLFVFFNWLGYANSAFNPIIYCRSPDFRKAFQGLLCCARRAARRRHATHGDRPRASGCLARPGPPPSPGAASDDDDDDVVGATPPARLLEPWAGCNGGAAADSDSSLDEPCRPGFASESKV
Assay [4] has as its target Gamma-aminobutyric acid receptor subunit alpha-1 (Rattus norvegicus, UniProt P62813).
Another assay addresses Histamine H2 receptor (Homo sapiens, UniProt P25021). It is filed as functional, cell-based.
Assay [5] deals with 5-hydroxytryptamine receptor 2B (Homo sapiens, UniProt P41595). Format: functional, cell-based.
5-hydroxytryptamine receptor 2B, sequence (P41595 whole entry): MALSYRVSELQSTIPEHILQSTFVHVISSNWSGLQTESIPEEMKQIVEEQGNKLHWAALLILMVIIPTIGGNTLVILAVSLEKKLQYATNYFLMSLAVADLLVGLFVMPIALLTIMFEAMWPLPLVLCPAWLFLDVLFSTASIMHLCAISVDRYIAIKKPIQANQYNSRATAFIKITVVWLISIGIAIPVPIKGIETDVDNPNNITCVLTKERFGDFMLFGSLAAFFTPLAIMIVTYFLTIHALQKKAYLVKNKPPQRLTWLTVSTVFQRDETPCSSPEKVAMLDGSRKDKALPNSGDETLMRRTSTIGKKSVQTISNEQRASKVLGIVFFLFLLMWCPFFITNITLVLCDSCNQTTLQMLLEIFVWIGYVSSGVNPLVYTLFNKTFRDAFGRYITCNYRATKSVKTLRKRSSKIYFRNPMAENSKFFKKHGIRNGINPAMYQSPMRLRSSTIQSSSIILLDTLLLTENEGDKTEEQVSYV
In assay [6] the target is T3, 5-hydroxytryptamine receptor 3A (Homo sapiens, UniProt P46098).
T3 sequence (P46098 whole entry): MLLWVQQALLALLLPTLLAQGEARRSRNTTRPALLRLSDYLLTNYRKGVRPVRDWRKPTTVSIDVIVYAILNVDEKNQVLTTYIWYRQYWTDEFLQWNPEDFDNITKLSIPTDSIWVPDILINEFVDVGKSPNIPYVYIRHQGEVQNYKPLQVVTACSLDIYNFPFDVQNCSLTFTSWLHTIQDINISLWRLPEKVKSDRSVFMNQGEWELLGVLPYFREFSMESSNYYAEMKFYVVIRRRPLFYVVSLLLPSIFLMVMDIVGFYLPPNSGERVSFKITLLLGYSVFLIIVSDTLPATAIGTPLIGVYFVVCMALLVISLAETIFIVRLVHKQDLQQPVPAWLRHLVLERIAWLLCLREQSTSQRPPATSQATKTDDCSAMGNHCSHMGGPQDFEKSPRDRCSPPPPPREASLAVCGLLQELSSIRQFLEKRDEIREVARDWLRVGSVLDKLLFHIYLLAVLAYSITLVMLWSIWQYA
Format: functional.

For assay [7], the target named is Delta-type opioid receptor (Homo sapiens, UniProt P41143).
Delta-type opioid receptor, sequence (P41143 whole entry): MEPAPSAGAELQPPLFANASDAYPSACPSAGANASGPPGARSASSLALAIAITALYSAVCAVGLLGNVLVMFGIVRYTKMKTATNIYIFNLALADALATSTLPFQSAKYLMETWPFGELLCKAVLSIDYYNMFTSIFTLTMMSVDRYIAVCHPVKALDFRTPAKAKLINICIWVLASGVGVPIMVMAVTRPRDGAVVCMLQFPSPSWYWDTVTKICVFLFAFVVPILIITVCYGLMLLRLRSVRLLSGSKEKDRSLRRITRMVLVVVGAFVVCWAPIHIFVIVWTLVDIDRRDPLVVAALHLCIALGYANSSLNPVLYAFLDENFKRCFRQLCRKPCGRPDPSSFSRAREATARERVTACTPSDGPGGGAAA
In assay [8] the target is Kappa-type opioid receptor (Homo sapiens, UniProt P41145).
Kappa-type opioid receptor, sequence (P41145 whole entry): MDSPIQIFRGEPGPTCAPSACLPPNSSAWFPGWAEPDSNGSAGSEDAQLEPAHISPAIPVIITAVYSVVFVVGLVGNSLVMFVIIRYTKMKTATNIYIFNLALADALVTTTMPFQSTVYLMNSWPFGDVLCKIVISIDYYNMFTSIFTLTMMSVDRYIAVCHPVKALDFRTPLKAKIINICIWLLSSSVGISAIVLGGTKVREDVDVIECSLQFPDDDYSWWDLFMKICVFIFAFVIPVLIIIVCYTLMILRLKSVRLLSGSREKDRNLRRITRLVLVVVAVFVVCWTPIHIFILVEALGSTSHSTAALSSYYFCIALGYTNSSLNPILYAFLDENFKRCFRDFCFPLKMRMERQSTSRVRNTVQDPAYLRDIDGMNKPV
For assay [9], the target named is T4, Alpha-1A adrenergic receptor (Homo sapiens, UniProt P35348).
T4 sequence (P35348 whole entry): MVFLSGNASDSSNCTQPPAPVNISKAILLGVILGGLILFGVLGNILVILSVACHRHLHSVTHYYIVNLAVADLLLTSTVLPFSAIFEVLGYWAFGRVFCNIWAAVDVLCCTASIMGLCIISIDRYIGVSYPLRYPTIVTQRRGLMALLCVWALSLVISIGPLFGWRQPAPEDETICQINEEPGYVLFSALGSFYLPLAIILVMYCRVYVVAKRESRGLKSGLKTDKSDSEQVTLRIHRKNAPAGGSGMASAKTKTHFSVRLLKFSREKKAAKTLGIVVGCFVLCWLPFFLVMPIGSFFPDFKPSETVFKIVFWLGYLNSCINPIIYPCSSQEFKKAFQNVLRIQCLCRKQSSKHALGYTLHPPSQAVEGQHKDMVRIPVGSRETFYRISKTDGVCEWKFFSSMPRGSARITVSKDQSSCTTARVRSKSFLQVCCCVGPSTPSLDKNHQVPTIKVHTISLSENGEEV
Format: functional, cell-based.

The target of assay [10] is T5, Cannabinoid receptor 1 (Homo sapiens, UniProt P21554). It is filed as functional, cell-based.
T5 sequence (P21554 whole entry): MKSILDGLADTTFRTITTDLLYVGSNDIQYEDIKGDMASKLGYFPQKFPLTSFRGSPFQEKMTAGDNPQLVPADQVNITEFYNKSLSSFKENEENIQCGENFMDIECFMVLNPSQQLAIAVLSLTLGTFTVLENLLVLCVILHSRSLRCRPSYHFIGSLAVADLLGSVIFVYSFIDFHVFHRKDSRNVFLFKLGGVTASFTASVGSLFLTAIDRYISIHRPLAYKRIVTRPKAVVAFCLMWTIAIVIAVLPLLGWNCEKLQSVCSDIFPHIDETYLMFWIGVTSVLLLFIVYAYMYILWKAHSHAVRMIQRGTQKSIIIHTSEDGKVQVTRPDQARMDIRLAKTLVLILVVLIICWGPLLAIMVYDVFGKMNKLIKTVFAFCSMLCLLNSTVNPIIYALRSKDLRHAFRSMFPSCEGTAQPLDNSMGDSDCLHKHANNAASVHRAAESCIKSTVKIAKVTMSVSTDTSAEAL
Assay [11] deals with T5, Cannabinoid receptor 1. Format: functional, cell-based. This is another data set of the same source.
The target of assay [12] is 3',5'-cyclic-AMP phosphodiesterase 4D (Homo sapiens, UniProt Q08499). It is filed as functional.
3',5'-cyclic-AMP phosphodiesterase 4D, sequence (Q08499 whole entry): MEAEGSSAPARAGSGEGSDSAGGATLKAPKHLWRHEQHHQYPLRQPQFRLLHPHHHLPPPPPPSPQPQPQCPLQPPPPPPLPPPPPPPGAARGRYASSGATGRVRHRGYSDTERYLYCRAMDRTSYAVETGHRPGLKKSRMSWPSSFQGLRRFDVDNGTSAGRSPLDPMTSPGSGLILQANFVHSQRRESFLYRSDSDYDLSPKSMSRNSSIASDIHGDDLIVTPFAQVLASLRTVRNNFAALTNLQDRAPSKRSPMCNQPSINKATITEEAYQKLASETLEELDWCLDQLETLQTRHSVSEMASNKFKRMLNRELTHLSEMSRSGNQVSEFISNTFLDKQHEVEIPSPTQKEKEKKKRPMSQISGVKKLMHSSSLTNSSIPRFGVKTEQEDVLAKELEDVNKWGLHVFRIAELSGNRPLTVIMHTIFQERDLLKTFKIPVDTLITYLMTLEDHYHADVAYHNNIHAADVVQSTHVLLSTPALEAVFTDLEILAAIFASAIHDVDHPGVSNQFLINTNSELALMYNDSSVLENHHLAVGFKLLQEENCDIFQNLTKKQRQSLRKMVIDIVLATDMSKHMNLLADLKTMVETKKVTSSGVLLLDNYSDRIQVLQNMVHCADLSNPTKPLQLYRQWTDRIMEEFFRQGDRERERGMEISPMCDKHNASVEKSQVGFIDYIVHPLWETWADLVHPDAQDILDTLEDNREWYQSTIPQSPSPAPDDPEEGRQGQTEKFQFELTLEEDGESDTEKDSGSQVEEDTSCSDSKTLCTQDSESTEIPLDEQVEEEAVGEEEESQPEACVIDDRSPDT
A further assay addresses T6, Thromboxane A2 receptor (Homo sapiens, UniProt P21731).
T6 sequence (P21731 whole entry): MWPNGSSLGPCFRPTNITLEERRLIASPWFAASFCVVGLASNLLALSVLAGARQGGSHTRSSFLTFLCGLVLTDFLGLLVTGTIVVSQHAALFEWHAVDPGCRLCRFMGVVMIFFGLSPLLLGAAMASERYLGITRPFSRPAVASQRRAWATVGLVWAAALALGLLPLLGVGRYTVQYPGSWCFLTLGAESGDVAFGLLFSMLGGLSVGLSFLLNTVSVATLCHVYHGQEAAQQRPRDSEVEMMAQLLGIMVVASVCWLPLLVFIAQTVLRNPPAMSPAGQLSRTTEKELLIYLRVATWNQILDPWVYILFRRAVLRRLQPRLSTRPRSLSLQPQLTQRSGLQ

SMILES strings stand for the structures.
Also: assay procedure not described here.

Gamma-aminobutyric acid receptor subunit alpha-1, sequence (P62813 whole entry): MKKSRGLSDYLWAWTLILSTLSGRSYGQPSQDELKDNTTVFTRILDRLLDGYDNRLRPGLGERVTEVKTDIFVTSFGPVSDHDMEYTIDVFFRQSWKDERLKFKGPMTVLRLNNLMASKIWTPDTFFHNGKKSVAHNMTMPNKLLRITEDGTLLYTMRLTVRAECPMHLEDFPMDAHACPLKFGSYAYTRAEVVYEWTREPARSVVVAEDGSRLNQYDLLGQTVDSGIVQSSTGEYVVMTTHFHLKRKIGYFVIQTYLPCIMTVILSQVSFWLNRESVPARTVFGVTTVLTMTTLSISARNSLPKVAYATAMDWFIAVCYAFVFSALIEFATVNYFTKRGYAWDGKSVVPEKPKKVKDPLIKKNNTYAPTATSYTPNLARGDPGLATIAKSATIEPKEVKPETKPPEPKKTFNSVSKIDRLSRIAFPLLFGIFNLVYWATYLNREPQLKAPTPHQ
Histamine H2 receptor, sequence (P25021 whole entry): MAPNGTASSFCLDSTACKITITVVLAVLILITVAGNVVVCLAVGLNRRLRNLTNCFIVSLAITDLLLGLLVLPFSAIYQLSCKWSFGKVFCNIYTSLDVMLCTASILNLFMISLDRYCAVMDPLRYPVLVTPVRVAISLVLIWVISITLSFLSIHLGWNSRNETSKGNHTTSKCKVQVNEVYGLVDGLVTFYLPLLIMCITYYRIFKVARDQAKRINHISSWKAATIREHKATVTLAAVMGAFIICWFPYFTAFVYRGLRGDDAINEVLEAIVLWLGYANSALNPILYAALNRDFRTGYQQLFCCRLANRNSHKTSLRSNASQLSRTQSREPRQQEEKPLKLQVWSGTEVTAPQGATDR

For the molecule `CC/C(=C(\c1ccccc1)c1ccc(OCCN(C)C)cc1)c1ccccc1` [TAMOXIFEN], the AC50 in assay [1] was above 10 µM; in assay [2], above 10 µM; in assay [3], 17.6 µM; in assay [4], above 10 µM; at Histamine H2 receptor, above 10 µM; in assay [5], above 10 µM. The AC50 in [6] is above 30 µM; in assay [7], above 30 µM; in assay [8], 8.53 µM; in [9], above 30 µM.
On to `COc1ccc2c3c1O[C@H]1[C@@H](O)CC[C@H]4[C@@H](C2)N(C)CC[C@@]341` [DIHYDROCODEINE], for which the AC50 (in [1]; in assay [2]; on Cannabinoid receptor 1 [10]; at Cannabinoid receptor 1 [11]; in assay [4]; at Histamine H2 receptor) was above 30 µM throughout. Moreover, the AC50 in [5], in assay [6], in assay [7], in assay [8], in assay [12] and in [9] was above 30 µM in each case.
As for `O=C1C(O)=C([C@H]2CC[C@H](c3ccc(Cl)cc3)CC2)C(=O)c2ccccc21` [ATOVAQUONE], the AC50 (in assay [1]; in assay [2]; in assay [3]; in assay [4]; on Histamine H2 receptor; in assay [5]) was above 30 µM each time. The AC50 (in [6]; in assay [7]; in assay [8]; in assay [12]; at Thromboxane A2 receptor; in [9]) was above 30 µM each time.
On to `Clc1ccccc1C(c1ccccc1)(c1ccccc1)n1ccnc1` [CLOTRIMAZOLE], for which the AC50 in assay [3] was above 10 µM; at Cannabinoid receptor 1 [10] it was above 30 µM; on Cannabinoid receptor 1 [11], above 30 µM; in assay [4], above 10 µM; on Histamine H2 receptor, above 10 µM; in assay [5] it was above 10 µM. Moreover, the AC50 in assay [6] was above 30 µM; in assay [7], above 30 µM; in assay [8], 0.746 µM; in assay [9], above 30 µM.
As to `C[C@H]1COc2c(C3(N)CC3)c(F)cc3c(=O)c(C(=O)O)cn1c23` [PAZUFLOXACIN], the AC50 (in assay [1]; in [2]; in assay [3]; in assay [4]; on Histamine H2 receptor; in assay [5]) was above 10 µM throughout. Also, the AC50 is above 30 µM in assay [6]; above 30 µM in [7]; above 10 µM in assay [8]; above 30 µM in assay [12]; above 10 µM on Thromboxane A2 receptor.
As for `CC(CC1c2ccccc2CCc2ccccc21)CN(C)C` (stereo unspecified) [BUTRIPTYLINE], the AC50 in [1] was above 30 µM; in assay [2], 6.9 µM; at Cannabinoid receptor 1 [10] it was above 30 µM; on Cannabinoid receptor 1 [11], above 30 µM; in assay [4], above 30 µM; on Histamine H2 receptor it was above 30 µM. Besides, the AC50 was above 30 µM in assay [5]; above 30 µM in assay [6]; above 30 µM in assay [8]; above 30 µM in [12]; 15 µM in assay [9].
Turning to `Cc1cc(C(C)(C)C)c(O)c(C)c1CC1=NCCN1` [OXYMETAZOLINE], the AC50 (at Cannabinoid receptor 1 [10]; on Cannabinoid receptor 1 [11]; in [6]; in [7]; in assay [12]) was above 30 µM each time.
Turning to `CC1(C)CCC(CN2CCN(c3ccc(C(=O)NS(=O)(=O)c4ccc(NCC5CCOCC5)c([N+](=O)[O-])c4)c(Oc4cnc5[nH]ccc5c4)c3)CC2)=C(c2ccc(Cl)cc2)C1` [VENETOCLAX], the results for the AC50 in assay [2], in assay [7] and in [12] were 17 µM, above 30 µM and above 30 µM, respectively.
Take `NC(=O)OCC(COC(N)=O)c1ccccc1` [FELBAMATE]: the AC50 (in assay [1]; in [2]; in assay [3]; in assay [4]; at Histamine H2 receptor; in assay [5]) was above 10 µM throughout. Besides, the AC50 in assay [6] was above 30 µM; in assay [7], above 30 µM; in [8] it was above 10 µM; in assay [12], above 30 µM; at Thromboxane A2 receptor it was above 10 µM.
Regarding `COc1ccc(CCNCC(O)COc2cccc(C)c2)cc1OC` (stereo unspecified) [BEVANTOLOL], the AC50 was above 10 µM in assay [1]; 9.4 µM in assay [2]; 0.026 µM in [3]; above 30 µM on Cannabinoid receptor 1 [10]; above 10 µM in assay [4]; above 30 µM at Histamine H2 receptor. Moreover, the AC50 in assay [5] was 14 µM; in [6] it was above 30 µM; in assay [7] it was above 30 µM; in assay [8], above 10 µM; in assay [12], above 30 µM; at Thromboxane A2 receptor it was above 10 µM. Further, half-maximal activity in [9] (AC50) was put at 12 µM.
Consider `Brc1c(NC2=NCCN2)ccc2nccnc12` [BRIMONIDINE], for which the AC50 (in assay [3]; at Cannabinoid receptor 1 [10]; at Cannabinoid receptor 1 [11]; in assay [4]; at Histamine H2 receptor; in assay [5]) was above 30 µM throughout. Besides, the AC50 in assay [6], in assay [7], in assay [8] and in assay [12] was above 30 µM each time.
In the case of `Nc1nc(Cl)nc2c1ncn2[C@H]1C[C@H](O)[C@@H](CO)O1` [CLADRIBINE], the AC50 (in assay [1]; in assay [2]; in [3]; at Cannabinoid receptor 1 [10]; on Cannabinoid receptor 1 [11]; in assay [4]) was above 30 µM in each case. For the same molecule, the AC50 at Histamine H2 receptor was above 30 µM; in [5], above 30 µM; in assay [6], above 30 µM; in [7], above 30 µM; in assay [8], above 30 µM; in [12], 0.97 µM. For the same molecule, the AC50 in assay [9] was above 30 µM.
